Experimental data: the NIST ThermoML archive (doi:10.1016/j.jct.2006.04.007)
“And” between values parts separate entries of the source, which are not always exact repeats. Identical values can stand only once.

Test: mn = molality of the nth substance listed, in mol/kg
Conditions: 350 kPa, Liquid; for apparent molar heat capacity: Extra sensitive DSC

CC(=O)N[C@@H](C=O)[C@@H](O)[C@H](O)[C@H](O)CO [N-acetyl-D-glucosamine] + O
Conditions | apparent molar heat capacity | mass density
318.15 K, m1 = 0.1999 | – | 1004.1 kg/m3
318.15 K, m1 = 0.3018 | – | 1010.81 kg/m3
318.15 K, m1 = 0.5001 | – | 1023.43 kg/m3
318.15 K, m1 = 0.7003 | – | 1035.3 kg/m3
318.15 K, m1 = 0.958 | – | 1051.87 kg/m3
323.15 K, m1 = 0.0096 | 516 J/K/mol | –
323.15 K, m1 = 0.0207 | 501 J/K/mol | –
323.15 K, m1 = 0.03 | 483 J/K/mol and 488 J/K/mol | –
323.15 K, m1 = 0.07 | 493.4 J/K/mol | –
323.15 K, m1 = 0.1502 | 483.4 J/K/mol | –
323.15 K, m1 = 0.1999 | 495.3 J/K/mol | –
323.15 K, m1 = 0.3018 | 498.2 J/K/mol | –
323.15 K, m1 = 0.5001 | 502.3 J/K/mol | –
323.15 K, m1 = 0.7003 | 503 J/K/mol | –
323.15 K, m1 = 0.958 | 484.1 J/K/mol | –
328.15 K, m1 = 0.0096 | 524 J/K/mol | –
328.15 K, m1 = 0.01 | – | 986.41 kg/m3
328.15 K, m1 = 0.02 | – | 987.4 kg/m3
328.15 K, m1 = 0.0207 | 509 J/K/mol | –
328.15 K, m1 = 0.03 | 490 J/K/mol and 497 J/K/mol | 987.95 kg/m3 and 987.87 kg/m3
328.15 K, m1 = 0.07 | 501.3 J/K/mol | 990.79 kg/m3
328.15 K, m1 = 0.1502 | 492.7 J/K/mol | 997.12 kg/m3
328.15 K, m1 = 0.1999 | 503.9 J/K/mol | 999.48 kg/m3
328.15 K, m1 = 0.3018 | 506.8 J/K/mol | 1006.12 kg/m3
328.15 K, m1 = 0.5001 | 510.8 J/K/mol | 1018.64 kg/m3
328.15 K, m1 = 0.7003 | 511.5 J/K/mol | 1030.41 kg/m3
328.15 K, m1 = 0.958 | 492.8 J/K/mol | 1046.86 kg/m3
333.15 K, m1 = 0.0096 | 532 J/K/mol | –
333.15 K, m1 = 0.0207 | 517 J/K/mol | –
333.15 K, m1 = 0.03 | 498 J/K/mol and 506 J/K/mol | –
333.15 K, m1 = 0.07 | 509.2 J/K/mol | –
333.15 K, m1 = 0.1502 | 501.5 J/K/mol | –
333.15 K, m1 = 0.1999 | 512.1 J/K/mol | –
333.15 K, m1 = 0.3018 | 514.9 J/K/mol | –
333.15 K, m1 = 0.5001 | 518.8 J/K/mol | –
333.15 K, m1 = 0.7003 | 519.6 J/K/mol | –
333.15 K, m1 = 0.958 | 501.1 J/K/mol | –
338.15 K, m1 = 0.0096 | 540 J/K/mol | –
338.15 K, m1 = 0.0207 | 524 J/K/mol | –
338.15 K, m1 = 0.03 | 505 J/K/mol and 514 J/K/mol | –
338.15 K, m1 = 0.07 | 517 J/K/mol | –
338.15 K, m1 = 0.1502 | 510.1 J/K/mol | –
338.15 K, m1 = 0.1999 | 520 J/K/mol | –
338.15 K, m1 = 0.3018 | 522.8 J/K/mol | –
338.15 K, m1 = 0.5001 | 526.6 J/K/mol | –
338.15 K, m1 = 0.7003 | 527.5 J/K/mol | –
338.15 K, m1 = 0.958 | 509.1 J/K/mol | –
343.15 K, m1 = 0.0096 | 547 J/K/mol | –
343.15 K, m1 = 0.0207 | 532 J/K/mol | –
343.15 K, m1 = 0.03 | 511 J/K/mol and 523 J/K/mol | –
343.15 K, m1 = 0.07 | 524.3 J/K/mol | –
343.15 K, m1 = 0.1502 | 518.1 J/K/mol | –
343.15 K, m1 = 0.1999 | 527.4 J/K/mol | –
343.15 K, m1 = 0.3018 | 530.1 J/K/mol | –
343.15 K, m1 = 0.5001 | 533.9 J/K/mol | –
343.15 K, m1 = 0.7003 | 535 J/K/mol | –
343.15 K, m1 = 0.958 | 516.5 J/K/mol | –
348.15 K, m1 = 0.0096 | 554 J/K/mol | –
348.15 K, m1 = 0.01 | – | 975.69 kg/m3
348.15 K, m1 = 0.02 | – | 976.44 kg/m3
348.15 K, m1 = 0.0207 | 538 J/K/mol | –
348.15 K, m1 = 0.03 | 518 J/K/mol and 531 J/K/mol | 977.15 kg/m3 and 977.05 kg/m3
348.15 K, m1 = 0.07 | 531.6 J/K/mol | 979.84 kg/m3
348.15 K, m1 = 0.1502 | 525.9 J/K/mol | 986.13 kg/m3
348.15 K, m1 = 0.1999 | 534.7 J/K/mol | 988.48 kg/m3
348.15 K, m1 = 0.3018 | 537.2 J/K/mol | 995.03 kg/m3
348.15 K, m1 = 0.5001 | 540.8 J/K/mol | 1007.4 kg/m3
348.15 K, m1 = 0.7003 | 542.3 J/K/mol | 1019.03 kg/m3
348.15 K, m1 = 0.958 | 523.5 J/K/mol | 1035.29 kg/m3
353.15 K, m1 = 0.0096 | 561 J/K/mol | –
353.15 K, m1 = 0.0207 | 545 J/K/mol | –
353.15 K, m1 = 0.03 | 524 J/K/mol and 539 J/K/mol | –
353.15 K, m1 = 0.07 | 538.7 J/K/mol | –
353.15 K, m1 = 0.1502 | 533.4 J/K/mol | –
353.15 K, m1 = 0.1999 | 541.6 J/K/mol | –
353.15 K, m1 = 0.3018 | 544.1 J/K/mol | –
353.15 K, m1 = 0.5001 | 547.6 J/K/mol | –
353.15 K, m1 = 0.7003 | 549.6 J/K/mol | –
353.15 K, m1 = 0.958 | 530.3 J/K/mol | –
358.15 K, m1 = 0.0096 | 568 J/K/mol | –
358.15 K, m1 = 0.01 | – | 969.57 kg/m3
358.15 K, m1 = 0.02 | – | 969.97 kg/m3
358.15 K, m1 = 0.0207 | 552 J/K/mol | –
358.15 K, m1 = 0.03 | 529 J/K/mol and 547 J/K/mol | 970.91 kg/m3 and 970.89 kg/m3
358.15 K, m1 = 0.07 | 545.8 J/K/mol | 973.66 kg/m3
358.15 K, m1 = 0.1502 | 540.9 J/K/mol | 979.94 kg/m3
358.15 K, m1 = 0.1999 | 548.3 J/K/mol | 982.31 kg/m3
358.15 K, m1 = 0.3018 | 550.7 J/K/mol | 988.83 kg/m3
358.15 K, m1 = 0.5001 | 554.1 J/K/mol | 1000.87 kg/m3
358.15 K, m1 = 0.7003 | 556.9 J/K/mol | 1012.6 kg/m3
358.15 K, m1 = 0.958 | 536.9 J/K/mol | 1028.69 kg/m3
363.15 K, m1 = 0.0096 | 574 J/K/mol | –
363.15 K, m1 = 0.0207 | 558 J/K/mol | –
363.15 K, m1 = 0.03 | 533 J/K/mol and 553 J/K/mol | –
363.15 K, m1 = 0.07 | 551.5 J/K/mol | –
363.15 K, m1 = 0.1502 | 547.3 J/K/mol | –
363.15 K, m1 = 0.1999 | 554.3 J/K/mol | –
363.15 K, m1 = 0.3018 | 556.6 J/K/mol | –
363.15 K, m1 = 0.5001 | 559.9 J/K/mol | –
363.15 K, m1 = 0.7003 | 564.4 J/K/mol | –
363.15 K, m1 = 0.958 | 542.9 J/K/mol | –
368.15 K, m1 = 0.01 | – | 963.46 kg/m3
368.15 K, m1 = 0.02 | – | 963.16 kg/m3
368.15 K, m1 = 0.03 | – | 964.01 kg/m3 and 964.02 kg/m3
368.15 K, m1 = 0.07 | – | 966.84 kg/m3
368.15 K, m1 = 0.1502 | – | 973.05 kg/m3
368.15 K, m1 = 0.1999 | – | 975.42 kg/m3
368.15 K, m1 = 0.3018 | – | 981.89 kg/m3
368.15 K, m1 = 0.5001 | – | 994.17 kg/m3
368.15 K, m1 = 0.7003 | – | 1005.68 kg/m3
368.15 K, m1 = 0.958 | – | 1021.82 kg/m3
